Results on one compound are retold here after patent US20150306096A1, “8'-HYDROXY-DIHYDROERGOTAMINE COMPOUNDS AND COMPOSITIONS” (MAP Pharmaceuticals, Inc., priority 2012, published 2015).

For experiment [1], the target named is T1, human Serotonin 5-HT1D receptor (Homo sapiens, UniProt P28221).
T1 construct: purchased Euroscreen
The experiment in a line: GTPγS functional assay. The note with it: read-out: Functional activity (agonist). Format: biochemical. As for the experimental part:
Functional profiling of agonist and antagonist activities of 8′-OH DHE on human Adrenergic α1D, Dopamine D2L, and Serotonin 5-HT1B, 5-HT1D, 5-HT1F, 5-HT3, 5-HT4e and 5-HT5A receptors (compared against the parent (DHE) molecule) was carried out as follows.
The SPA 35S-GTPγS tests were conducted with Euroscreen membrane preparations […]. The HTRF assays were conducted with recombinant cell lines. The receptor accession numbers, cellular background and reference compounds are as reported below in Table 10.
(3) 8′-OH DHE was tested for agonist and antagonist activity at the human Serotonin 5-HT1B and Serotonin 5-HT1D receptors using GTPγS assay (in triplicate) at the following nanomolar concentrations: […]
The assay procedure was carried out as follows. […] The plates were then centrifuged for 10 minutes at 2,000 rpm and counted for 1 min/well with a Perkin Elmer TopCount reader.
Agonist activity of the test compounds was expressed as a percentage of the activity of the reference agonist at its EC100 concentration. Antagonist activity of the test compounds was expressed as a percentage of the inhibition of the reference agonist activity at its EC80 concentration. Dose-response data from the test compounds were analyzed with XLfit (IDBS) software using nonlinear regression applied to a sigmoidal dose-response model and the following equation: […]

Experiment [2] concerns Glutamate (mGlu3/mGlu5/mG1u7). The experiment in a line: Glutamate receptor aequorin / cAMP assays. Format: cell-based, human. The conditions noted are these: mGlu receptors. As for the experimental part:
Additional receptor agonist/agonist activity assessments were performed using the 8′-OH DHE test compound. Table 12 contains a summary of the cell lines (CHO-K1/HEK293 transfected with relevant human receptor) and the assays performed to detect any agonist or antagonist activity. […]
For agonist testing, 30 μL of cell suspension was mixed with 30 μL of the test 8′-OH DHE compound or reference agonist in a 384-well plate. The resulting emission of light was recorded using the FDSS 6000 luminometer. […] The resulting emission of light was recorded using the FDSS 6000 luminometer.
Cells expressing the human recombinant receptor of interest were grown in media without antibiotic and detached by gentle flushing with PBS-EDTA (5 mM EDTA), recovered by centrifugation and resuspended in assay buffer (KRH: 5 mM KCl, 1.25 mM MgSO4, 124 mM NaCl, 25 mM HEPES, 13.3 mM glucose, 1.25 mM KH2PO4, 1.45 mM CaCl2, 0.5 g/L BSA). […] Lysis buffer was added and after one hour incubation, cAMP concentrations were determined according to the manufacturer specification with the HTRF kit. […] Lysis buffer was added and after 1 hour incubation, cAMP concentrations were determined according to the manufacturer specification, with the HTRF kit. […]

In experiment [3] the test system is Calcitonin (AM1/AM2). The experiment in a line: cAMP HTRF assay. It is filed as cell-based, human. Here is the method:
Additional receptor agonist/agonist activity assessments were performed using the 8′-OH DHE test compound. Table 12 contains a summary of the cell lines (CHO-K1/HEK293 transfected with relevant human receptor) and the assays performed to detect any agonist or antagonist activity.
Cells expressing the human recombinant receptor of interest were grown in media without antibiotic and detached by gentle flushing with PBS-EDTA (5 mM EDTA), recovered by centrifugation and resuspended in assay buffer (KRH: 5 mM KCl, 1.25 mM MgSO4, 124 mM NaCl, 25 mM HEPES, 13.3 mM glucose, 1.25 mM KH2PO4, 1.45 mM CaCl2, 0.5 g/L BSA). Dose response curves were performed in parallel with the reference compounds. For agonist tests (96-well plates), 12 μL of cells was mixed with 12 μL of the test 8′-OH DHE compound at increasing concentrations and then incubated for 30 minutes at RT. Lysis buffer was added and after one hour incubation, cAMP concentrations were determined according to the manufacturer specification with the HTRF kit. For antagonist tests (96-well plates), 12 μL of cells was mixed with 6 μL of the test 8′-OH DHE compound at increasing concentrations and then incubated for 10 minutes. […] Lysis buffer was added and after 1 hour incubation, cAMP concentrations were determined according to the manufacturer specification, with the HTRF kit. […]
A general note: In TR-FRET formats the signal depends on donor and acceptor labels being close together.

T1 sequence (P28221 whole entry): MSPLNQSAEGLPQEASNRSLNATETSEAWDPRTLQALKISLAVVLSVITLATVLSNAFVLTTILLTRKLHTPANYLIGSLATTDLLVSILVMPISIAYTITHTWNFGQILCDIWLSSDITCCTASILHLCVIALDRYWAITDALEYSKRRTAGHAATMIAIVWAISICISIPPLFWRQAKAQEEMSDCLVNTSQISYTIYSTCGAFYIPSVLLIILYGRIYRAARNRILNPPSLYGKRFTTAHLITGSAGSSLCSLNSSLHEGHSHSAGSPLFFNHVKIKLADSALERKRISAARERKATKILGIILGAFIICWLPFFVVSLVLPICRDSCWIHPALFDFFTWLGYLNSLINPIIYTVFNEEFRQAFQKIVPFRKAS

Consider `CN1C[C@H](C(=O)N[C@]2(C)O[C@@]3(O)[C@@H]4CCC(O)N4C(=O)[C@H](Cc4ccccc4)N3C2=O)C[C@@H]2c3cccc4[nH]cc(c34)C[C@H]21` (stereo partly drawn) [8′-OH DHE, 8′-Hydroxy-Dihydroergotamine], for which the EC50 in experiment [1] is 0.49 nM. In addition, the “Activity (Agonism: EC50; Antagonism: IC50)” value in experiment [2] and in experiment [3] was “Inactive” each time.
